This is an account of results in US20060069110A1, “Substituted heterocyclic compounds and methods of use” (priority 2004, published 2006).

pIC50: −log10 of the molar value.

This assay relates to THP1 cells (LPS induced TNF release). The assay can be described thus: Lipopolysaccharide-Activated THP1 Cell TNF Production Assay. The format is cell-based. The settings on record: Homo sapiens, THP-1; THP1 cells, bacterial LPS, secreted TNF-α after 3 h at 37° C.; read-out: IC50 values in the THP1 cell assay (LPS induced TNF release). The method, then: Lipopolysaccharide-Activated THP1 Cell TNF Production Assay
THP1 cells are resuspended in fresh THP1 media (RPMI 1640, 10% heat-inactivated FBS, 1×PGS, 1×NEAA, plus 30 μM βME) at a concentration of 1E6/mL. One hundred microliters of cells per well are plated in a polystyrene 96-well tissue culture. One microgram per mL of bacterial LPS is prepared in THP1 media and is transferred to the wells. Test compounds are dissolved in 100% DMSO and are serially diluted 3 fold in a polypropylene 96-well microtiter plate (drug plate). HI control and LO control wells contain only DMSO. One microliter of test compound from the drug plate followed by 10 μL of LPS are transferred to the cell plate. The treated cells are induced to synthesize and secrete TNF-α at 37° C. for 3 h. Forty microliters of conditioned media are transferred to a 96-well polypropylene plate containing 110 μL of ECL buffer (50 mM Tris-HCl pH 8.0, 100 mM NaCl, 0.05% Tween 20, 0.05% NaN3 and 1% FBS) supplemented with 0.44 nM MAB610 monoclonal Ab (R&D Systems), 0.34 nM ruthenylated AF210NA polyclonal Ab (R&D Systems) and 44 μg/mL sheep anti-mouse M280 Dynabeads (Dynal). After a 2 h incubation at RT with shaking, the reaction is read on the ECL M8 Instrument (IGEN Inc.). A low voltage is applied to the ruthenylated TNF-α immune complexes, which in the presence of TPA (the active component in Origlo), results in a cyclical redox reaction generating light at […]. The amount of secreted TNF-α in the presence of compound compared with that in the presence of DMSO vehicle alone (HI control) is calculated using the formula: % control (POC)=(cpd−average LO)/(average HI−average LO)*100. Data (consisting of POC and inhibitor concentration in μM) is fitted to a 4-parameter equation (y=A+((B−A)/(1+((×/C)ôD))), where A is the minimum y (POC) value, B is the maximum y (POC), C is the x (cpd concentration) at the point of inflection and D is the slope factor) using a Levenburg-Marquardt non-linear regression algorithm.

Regarding `CN(c1ccnc(NC(C)(C)CNC(=O)OC(C)(C)C)n1)c1ccnc(-c2ccccc2)n1` [Example 26, tert-Butyl 2-methyl-2-(4-(methyl(2-phenylpyrimidin-4-yl)amino)pyrimidin-2-yl-amino)propylcarbamate], the pIC50 (in general, the IC50 on a negative log10 scale, so that one unit is a factor of ten) is at least 4.70.
`CN(c1ccnc(NC(C)(C)CN)n1)c1ccnc(-c2ccccc2)n1` [Example 27, N^2-(1-Amino-2-methylpropan-2-yl)-N^4-methyl-N^4-(2-phenylpyrimidin-4-yl)-pyrimidine-2,4-diamine]: the pIC50 is at least 4.70.
In the case of `C[C@H](N)c1ccc(CCNc2nccc(N(C)c3ccnc(-c4ccccc4)n3)n2)cc1` [Example 28, (S)-N^2-(4-(1-Aminoethyl)phenethyl)-N^4-methyl-N^4-(2-phenylpyrimidin-4-yl)-pyrimidine-2,4-diamine], the pIC50 is at least 4.70.
The result for `C[C@@H](Cc1cccc(C(C)(C)N)c1)Nc1nccc(N(C)c2ccnc(-c3ccccc3)n2)n1` [Example 29, (S)-N^2-(1-(3-(2-Aminopropan-2-yl)phenyl)propan-2-yl)-N^4-methyl-N^4-(2-phenylpyrimidin-4-yl)pyrimidine-2,4-diamine] reads at least 4.70; that for `CN(c1ccnc(N[C@@H](CCO)c2ccccc2)n1)c1ccnc(-c2ccccc2)n1` [Example 30, (S)-3-(4-(Methyl(2-phenylpyrimidin-4-yl)amino)pyrimidin-2-ylamino)-3-phenylpropan-1-ol], at least 4.70; that for `CN(c1ccnc(N[C@H](CCO)c2ccccc2)n1)c1ccnc(-c2ccccc2)n1` [Example 31, (R)-3-(4-(Methyl(2-phenylpyrimidin-4-yl)amino)pyrimidin-2-ylamino)-3-phenylpropan-1-ol], at least 4.70.
Turning to `Cc1cc(N(C)c2ccnc(-c3ccccc3)n2)nc(NC2CCC(N)CC2)n1` (stereo not drawn) [Example 33, N2-((1r,4r)-4-Aminocyclohexyl)-N4,6-dimethyl-N4-(2-phenylpyrimidin-4-yl)pyrimidine-2,4-diamine], the pIC50 was at least 4.70.
With `Cc1cc(N(C)c2ccnc(-c3ccccc3)n2)nc(N[C@@H](C)Cc2cccc(CNC(=O)[C@H](C)N)c2)n1` [Example 35, (S)-N-((S)-3-((S)-2-(4-Methyl-6-(methyl(2-phenylpyrimidin-4-yl)amino)pyrimidin-2-ylamino)propyl)benzyl)-2-aminopropanamide], the pIC50 was at least 4.70.
On to `Cc1cc(N(C)c2ccnc(-c3ccccc3)n2)nc(N[C@@H](C)Cc2cccc([C@@H](C)N)c2)n1` [Example 36, N^2-((S)-1-(3-((R)-1-Aminoethyl)phenyl)propan-2-yl)-N^4,6-dimethyl-N^4-(2-phenylpyrimidin-4-yl)pyrimidine-2,4-diamine], for which the pIC50 was at least 4.70.
The same measure for `CN(c1ccnc(N[C@H](Cc2ccccc2)C(N)=O)n1)c1ccnc(-c2ccccc2)n1` [Example 39]: at least 4.70; for `C[C@H](N)c1cccc(C[C@H](C)Nc2nccc(N(C)c3ccnc(-c4ccccc4)n3)n2)c1` [Example 40, N^2-((S)-1-(3-((S)-1-Aminoethyl)phenyl)propan-2-yl)-N^4-methyl-N^4-(2-phenyl-pyrimidin-4-yl)pyrimidine-2,4-diamine]: at least 4.70; for `C[C@@H](Cc1cc(C#N)ccc1Cl)Nc1nccc(N(C)c2ccnc(-c3ccccc3)n2)n1` [Example 41, (S)-4-Chloro-3-(2-(4-(methyl(2-phenylpyrimidin-4-yl)amino)pyrimidin-2-ylamino)-propyl)benzonitrile]: at least 4.70.
The result for `C[C@@H](Cc1cc(CN)ccc1Cl)Nc1nccc(N(C)c2ccnc(-c3ccccc3)n2)n1` [Example 42, (S)-N^2-(1-(5-(Aminomethyl)-2-chlorophenyl)propan-2-yl)-N^4-methyl-N^4-(2-phenyl-pyrimidin-4-yl)pyrimidine-2,4-diamine] reads at least 4.70; that for `CN(c1ccnc(NC2CCN(C(=O)CN)CC2)n1)c1ccnc(-c2ccccc2)n1` [Example 43, 2-Amino-1-(4-(4-(methyl(2-phenylpyrimidin-4-yl)amino)pyrimidin-2-ylamino)-piperidin-1-yl)ethanone], at least 4.70; that for `C[C@@H](N)CC(=O)N1CCC(Nc2nccc(N(C)c3ccnc(-c4ccccc4)n3)n2)CC1` [Example 44, (R)-3-Amino-1-(4-(4-(methyl(2-phenylpyrimidin-4-yl)amino)pyrimidin-2-ylamino)-piperidin-1-yl)butan-1-one], at least 4.70.
`CN(c1ccnc(N[C@H](Cc2ccccc2)C(=O)O)n1)c1ccnc(-c2ccccc2)n1` [Example 45, (R)-2-(4-(Methyl(2-phenylpyrimidin-4-yl)amino)pyrimidin-2-ylamino)-3-phenyl-propanoic acid]: the pIC50 is at least 4.70.
Consider `CNC(=O)[C@@H](Cc1ccccc1)Nc1nccc(N(C)c2ccnc(-c3ccccc3)n2)n1` [Example 46, (R)-N-Methyl-2-(4-(methyl(2-phenylpyrimidin-4-yl)amino)pyrimidin-2-ylamino)-3-phenylpropanamide], for which the pIC50 was at least 4.70.
The result for `CN(c1ccnc(N[C@@H](CN)Cc2ccccc2)n1)c1ccnc(-c2ccccc2)n1` [Example 48, (R)-N^2-(1-Amino-3-phenylpropan-2-yl)-N^4-methyl-N^4-(2-phenylpyrimidin-4-yl)pyrimidine-2,4-diamine] reads at least 4.70; that for `CC(C)NC[C@@H](Cc1ccccc1)Nc1nccc(N(C)c2ccnc(-c3ccccc3)n2)n1` [Example 49, (R)-N^2-(3-(Isopropylamino)-1-phenylpropan-2-yl)-N^4-methyl-N^4-(2-phenyl-pyrimidin-4-yl)pyrimidine-2,4-diamine], at least 4.70; that for `CN(c1ccnc(N[C@@H](CNCCN)Cc2ccccc2)n1)c1ccnc(-c2ccccc2)n1` [Example 50, (R)-N^2-(3-(2-Aminoethylamino)-1-phenylpropan-2-yl)-N^4-methyl-N^4-(2-phenyl-pyrimidin-4-yl)pyrimidine-2,4-diamine], at least 4.70.
As for `CN(c1ccnc(N[C@@H](CNC(=O)CN)Cc2ccccc2)n1)c1ccnc(-c2ccccc2)n1` [Example 52, (R)-2-Amino-N-(2-(4-(methyl(2-phenylpyrimidin-4-yl)amino)pyrimidin-2-ylamino)-3-phenylpropyl)acetamide], the pIC50 was at least 4.70.
For the molecule `CN(c1ccnc(N[C@H](Cc2ccccc2)CN2CCOCC2)n1)c1ccnc(-c2ccccc2)n1` [Example 53, (R)-N^4-methyl-N^2-(3-morpholino-1-phenylpropan-2-yl)-N^4-(2-phenylpyrimidin-4-yl)pyrimidine-2,4-diamine], the pIC50 was at least 4.70.
The same measure for `CN(c1ccnc(N[C@@H](CCN2CCOCC2)Cc2ccccc2)n1)c1ccnc(-c2ccccc2)n1` [Example 54, (R)-N^4-Methyl-N^2-(4-morpholino-1-phenylbutan-2-yl)-N^4-(2-phenylpyrimidin-4-yl)pyrimidine-2,4-diamine]: at least 4.70.
As to `CN(c1ccnc(NCCc2ccccc2Cl)n1)c1nccc(C(C)(C)C)n1` [Example 55, N^2-(2-Chlorophenethyl)-N^4-(4-tert-butylpyrimidin-2-yl)-N^4-methylpyrimidine-2,4-diamine], the pIC50 was at least 4.70.
`CN(c1ccnc(N[C@@H](CCN)Cc2ccccc2)n1)c1ccnc(-c2ccccc2)n1` [Example 57, (R)-N^2-(4-Amino-1-phenylbutan-2-yl)-N^4-methyl-N^4-(2-phenylpyrimidin-4-yl)pyrimidine-2,4-diamine]: the pIC50 is at least 4.70.
Turning to `CC(C)NCC[C@@H](Cc1ccccc1)Nc1nccc(N(C)c2ccnc(-c3ccccc3)n2)n1` [Example 58, (R)-N^2-(4-(Isopropylamino)-1-phenylbutan-2-yl)-N^4-methyl-N^4-(2-phenylpyrimidin-4-yl)pyrimidine-2,4-diamine], the pIC50 was at least 4.70.
Turning to `CN(c1ccnc(N[C@@H](CCNC2CC2)Cc2ccccc2)n1)c1ccnc(-c2ccccc2)n1` [Example 59, (R)-N^2-(4-(Cyclopropylamino)-1-phenylbutan-2-yl)-N^4-methyl-N^4-(2-phenyl-pyrimidin-4-yl)pyrimidine-2,4-diamine], the pIC50 was at least 4.70.
The same measure for `CC(C)[C@H](CC(=O)N1CCOCC1)Nc1nccc(N(C)c2ccnc(-c3ccccc3)n2)n1` [Example 61]: at least 4.70; for `CC(C)[C@H](CCN1CCOCC1)Nc1nccc(N(C)c2ccnc(-c3ccccc3)n2)n1` [Example 62, (S)-N^4-Methyl-N^2-(4-methyl-1-morpholinopentan-3-yl)-N^4-(2-phenylpyrimidin-4-yl)pyrimidine-2,4-diamine]: at least 4.70; for `CN(c1ccnc(NCCc2cccnc2)n1)c1nc(-c2ccccc2)ncc1Br` [Example 63, N^4-(5-Bromo-2-phenylpyrimidin-4-yl)-N^4-methyl-N^2-(2-(pyridin-3-yl)ethyl)-pyrimidine-2,4-diamine]: at least 4.70.
